3 molecules from US11434204B2, “Method for producing a polymorphic form of 3-[5-amino-4-(3-cyanobenzoyl)-pyrazol-1-yl]-N-cyclopropyl-4-methylbenzamide” (MEREO BIOPHARMA 1 LIMITED, priority 2016, dated 2022) can be followed below.

Common to all, as to assay type: physicochemical
A short description of data set [1]: Variable temperature XRPD of Form A. The method, then: The sample was placed in Anton-Paar TTK 450 chamber at 25° C. The temperature was controlled in-situ through the measurement files: p2853-vt, LRP-1301-39-01.dql, LRP-1301-42-01.dql, LRP-1301-42-02.dql. The sample was heated from 25° C. to 200° C. at 1° C./min. XRPD data were collected from 30° C. to 200° C. every 10° C. Approximately 40 mg of the sample was placed in a Ni-coated sample holder under ambient conditions. The sample was loaded at 25° C.
At 200° C., changes (shifts) in peak position in the high 2-theta region were observed. This may be attributed to the thermal expansion effect.

Data set [2] in a line: Hygroscopicity (statement, method not given).
The nature of data set [3]: Final polymorph after holding in different solvents at different temperatures. The method, then:
Thus, preferably the solution of 3-[5-amino-4-(3-cyanobenzoyl)-pyrazol-1-yl]-N-cyclopropyl-4-methylbenzamide is not exposed to temperatures of greater than 70° C. for more than 24 hours, preferably not more than 12 hours, preferably not more than 6 hours.
Thus, it can be seen that at the higher temperatures of 70 and 80° C., conversion to Form B is effected, or a mixture of Form A and Form B are produced, particularly over longer periods of time. It can also be seen that the hydrate is formed when water is included in the solvent.

Turning to `Cc1ccc(C(=O)NC2CC2)cc1-n1ncc(C(=O)c2cccc(C#N)c2)c1N` [Form A, 3-[5-amino-4-(3-cyanobenzoyl)-pyrazol-1-yl]-N-cyclopropyl-4-methylbenzamide], in data set [1] (variable temperature XRPD, heated from 25° C. to 200° C. at 1° C./min), the “Temperature above which Form A converted to Form B on heating” value was “above 100 °C”. Besides, the Hygroscopicity result in data set [2] was “non-hygroscopic”.
With `Cc1ccc(C(=O)NC2CC2)cc1-n1ncc(C(=O)c2cccc(C#N)c2)c1N` [3-[5-amino-4-(3-cyanobenzoyl)-pyrazol-1-yl]-N-cyclopropyl-4-methylbenzamide], the Final polymorph result was “hydrate” in data set [3] (60° C., DMAC/H2O = 1/1, 1 day); “hydrate” in data set [3] (60° C., H2O, 1 day); “A + B” in data set [3] (70° C., EtOH, 3 days); “A + B” in data set [3] (70° C., n-PrOH, 3 days).
Regarding `Cc1ccc(C(=O)NC2CC2)cc1-n1ncc(C(=O)c2cccc(C#N)c2)c1N` [Form B, 3-[5-amino-4-(3-cyanobenzoyl)-pyrazol-1-yl]-N-cyclopropyl-4-methylbenzamide], in data set [1] (after heating to 200° C.), the “Solid form by XRPD after cooling to room temperature” value was “remained unchanged”.
